Data as given in PubChem BioAssay AID256 (DTP/NCI, 2004).
Inconclusive results and toxic doses are left out. The calls were made as follows: active = survival T/C of 150% or more; inactive = T/C below 125% in these data.

System: CD2F1 mice, L1210 leukemia ip, survival T/C
Assay: NCI In Vivo Anticancer Drug Screen. Data for tumor model L1210 Leukemia (intraperitoneal) in CD2F1 (CDF1) mice
Details: endpoint: mean survival time, higher = longer survival
Method in brief: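 Activity against a transplanted murine tumor was judged by comparing the compound group with a vehicle group. The outcome in the treated animals was divided by that in the controls.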

[1] = dose: 100.0 mg/kg/injection, schedule: Q01DX001 (ip), vehicle: saline with Tween-80
[2] = dose: 200.0 mg/kg/injection, schedule: Q01DX001 (ip), vehicle: saline with Tween-80
[3] = dose: 400.0 mg/kg/injection, schedule: Q01DX001 (ip), vehicle: saline with Tween-80
[4] = dose: 400.0 mg/kg/injection, schedule: Q01DX009 (ip), vehicle: saline with Tween-80
[5] = dose: 100.0 mg/kg/injection, schedule: Q01DX009 (ip), vehicle: saline with Tween-80
[6] = dose: 200.0 mg/kg/injection, schedule: Q01DX009 (ip), vehicle: saline with Tween-80
[7] = dose: 100.0 mg/kg/injection, schedule: Q04DX003 (ip), vehicle: saline with Tween-80
[8] = dose: 200.0 mg/kg/injection, schedule: Q04DX003 (ip), vehicle: saline with Tween-80
[9] = dose: 400.0 mg/kg/injection, schedule: Q04DX003 (ip), vehicle: saline with Tween-80

Measured: T/C

O=C(Nc1ccccc1)Nc1ccccc1C(=O)O
inactive: [1] 100 % of control | [2] 95 % of control | [3] 94 % of control

O=NN(CCCl)C(=O)Nc1cc2c3ccccc3ccc2c2ccccc12
inactive: dose: 177.0 mg/kg/injection, schedule: Q01DX009 (ip), vehicle: saline with Tween-80 102 % of control | dose: 265.0 mg/kg/injection, schedule: Q01DX009 (ip), vehicle: saline with Tween-80 98 % of control | [4] 102 % of control | dose: 600.0 mg/kg/injection, schedule: Q01DX009 (ip), vehicle: saline with Tween-80 89 % of control

O=C(O)/C=N/NS(=O)(=O)Cc1ccccc1
inactive: dose: 12.5 mg/kg/injection, schedule: Q04DX003 (ip), vehicle: other 102 % of control | dose: 25.0 mg/kg/injection, schedule: Q04DX003 (ip), vehicle: other 113 % of control | dose: 50.0 mg/kg/injection, schedule: Q04DX003 (ip), vehicle: other 117 % of control | dose: 100.0 mg/kg/injection, schedule: Q04DX003 (ip), vehicle: other 117 % of control | dose: 200.0 mg/kg/injection, schedule: Q04DX003 (ip), vehicle: other 122 % of control | dose: 400.0 mg/kg/injection, schedule: Q04DX003 (ip), vehicle: other 111 % of control

CNc1nc(-c2ccncc2)nc(N(C)C)n1
inactive: dose: 100.0 mg/kg/injection, schedule: Q04DX002 (ip), vehicle: saline with Tween-80 96 % of control | dose: 200.0 mg/kg/injection, schedule: Q04DX002 (ip), vehicle: saline with Tween-80 88 % of control

O=C1NC(=O)C(C2CC2)(C2CC2)N1
inactive: [5] 95 % of control | [6] 94 % of control | [4] 96 % of control

COc1cc(CNC(=O)/C(C)=C/Cl)ccc1O
inactive: dose: 12.5 mg/kg/injection, schedule: Q01DX009 (ip), vehicle: saline with Tween-80 96 % of control | dose: 25.0 mg/kg/injection, schedule: Q01DX009 (ip), vehicle: saline with Tween-80 95 % of control | dose: 50.0 mg/kg/injection, schedule: Q01DX009 (ip), vehicle: saline with Tween-80 101 % of control

NC(N)=Nc1ccc(C(=O)O)cc1
inactive: [7] 100 % of control | [8] 95 % of control | [9] 88 % of control

BrN1CCCCC1
inactive: dose: 100.0 mg/kg/injection, schedule: Q04DX002 (ip), vehicle: saline 103 % of control | dose: 200.0 mg/kg/injection, schedule: Q04DX002 (ip), vehicle: saline 122 % of control | dose: 400.0 mg/kg/injection, schedule: Q04DX002 (ip), vehicle: saline 103 % of control

O=NN1CCOC1=NCCCl
inactive: dose: 3.12 mg/kg/injection, schedule: Q01DX001 (ip), vehicle: water 100 % of control | dose: 6.25 mg/kg/injection, schedule: Q01DX001 (ip), vehicle: water 96 % of control | dose: 12.5 mg/kg/injection, schedule: Q01DX001 (ip), vehicle: water 94 % of control | dose: 25.0 mg/kg/injection, schedule: Q01DX001 (ip), vehicle: water 96 % of control | dose: 50.0 mg/kg/injection, schedule: Q01DX001 (ip), vehicle: water 96 % of control | dose: 100.0 mg/kg/injection, schedule: Q01DX001 (ip), vehicle: water 102 % of control | dose: 200.0 mg/kg/injection, schedule: Q01DX001 (ip), vehicle: water 122 % of control

CCOC(=O)/C=C/c1cccc([N+](=O)[O-])c1
inactive: [1] 101 % of control | [2] 101 % of control | [3] 108 % of control

Cc1ccc([N+](=O)[O-])c2ccccc12
inactive: [5] 91 % of control | [7] 88 % of control | [6] 91 % of control | [8] 90 % of control | [4] 95 % of control | [9] 94 % of control
